# In patent EP4692071A1, “PHOTOCHROMIC COMPOUND, NAPHTHOL DERIVATIVE, CURABLE COMPOSITION, OPTICAL ARTICLE, LENS, AND EYEGLASS” (TOKUYAMA CORPORATION, priority 2023, dated 2024):
# Legend:
# Type in all cases: physicochemical
# [1] = Residual rate (A90/A0×100) after 90 h accelerated deterioration in xenon weather meter X25, color developing durability; details: for Residual rate (%): xenon weather meter 90 hours; for Residual rate: after 90 h accelerated deterioration
# How it was run: (§1)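 Photochromic plastic lens samples were irradiated for 240 s at 23°C, and colour density was taken as the absorbance change at the absorption maximum. Fading half-life was timed from the end of irradiation until that absorbance change fell by half. Durability compared colour density before and after xenon-lamp ageing.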
# [2] = Maximum absorption wavelength (λmax) after color development, spectrophotometer MCPD3000; details: for Maximum absorption wavelength: after color development
# How it was run: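 Read-out: absorbance at λmax, multichannel photodetector spectrophotometer. Colour density = ε(240) − ε(0), 240 s light, 23°C. τ1/2 = time for ε(240) − ε(0) to halve after light off. Residual rate compares density before and after 90 h xenon weathering.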
# [3] = High-temperature color development rate (A35/A23×100), temperature dependency; details: for Temperature change rate (%): comparative compounds, corresponds to A35/A23×100
# How it was run: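 Color optical density was taken as the absorbance after 240 seconds of light irradiation, ε(240), minus the absorbance without irradiation, ε(0), at the absorption maximum. It was measured at 23°C (A23) and at 35°C (A35), and the ratio A35/A23×100 served as the high-temperature color development rate, showing temperature dependency.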
# [4] = 35°C color optical density (A35): absorbancy difference ε(240)-ε(0) after 240 s light irradiation at 35°C; details: 240 s irradiation; for 35°C color optical density (-): comparative compounds
# How it was run: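 A photochromic cured product was irradiated with light at 35°C for 240 seconds. The 35°C color optical density (A35) was the absorbancy after irradiation {ε(240)} minus the absorbancy without irradiation ε(0), read at the first and second absorption wavelengths. It served as an indicator of color optical density.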
# [5] = 23°C color fading half-life τ1/2 after 240 s light irradiation
# Method: • [1] Maximum Absorption Wavelength (λmax): The maximum absorption wavelength after color development, measured using a spectrophotometer (instantaneous multichannel photodetector MCPD3000) manufactured by Otsuka Electronics Co., Ltd. was used as an indicator for the color tone during the color development. • [2] 23°C Color Optical Density (A23): A difference between an absorbancy measured after light irradiation at 23°C for 240 seconds {ε(240)} and an absorbancy without light irradiation ε(0) at the maximum absorption wavelength was used as an indicator for the color optical density. […] 35°C Color Optical Density (A35): A difference between an absorbancy measured after light irradiation at 35°C for 240 seconds {ε(240)} and an absorbancy without light irradiation ε(0) at the first and second absorption wavelengths was used as an indicator for the color optical density. […] 23°C color fading half-life [τ1/2 (sec.)]: A time required for the absorbancy of the sample at the maximum absorption wavelength to decrease to 1/2 of {ε(240)-ε(0)} when the light irradiation is terminated after the light irradiation at 23°C for 240 seconds, was used as an indicator for the color fading speed. The shorter this time, the higher the color fading speed. • [6] Residual rate (A90/A0×100): The obtained photochromic plastic lens was subjected to accelerated deterioration using a xenon weather meter X25 manufactured by Suga Test Instruments Co., Ltd. for 90 hours. Subsequently, the color optical density was evaluated before and after the test, then a color optical density before the test (A0) and a color optical density after the test (A90) were measured, and a ratio (A90/A0) was defined as a residual rate. The residual rate was used as an indicator for a color developing durability. The higher the residual rate, the higher the color developing durability.
# [6] = 23°C color optical density (A23): absorbancy difference ε(240)-ε(0) after 240 s light irradiation at 23°C; details: 240 s irradiation; for 23°C color optical density (-): comparative compounds
# How it was run: as §1
# [7] = photochromic laminate by coating method
# [8] = photochromic laminate by coating method, 40 µm photochromic layer on thiourethane lens, 0.25 mmol compound per 100 g monomers
# [9] = photochromic laminate by coating method, at the maximum absorption wavelength
# [10] = photochromic laminate prepared by coating method
# [11] = binder sheet (binder method), urethaneurea resin photochromic layer between polycarbonate sheets, 0.25 mmol per 100 parts by mass resin
# [12] = binder sheet (binder method), measured at 451 nm absorption maximum
# [13] = binder sheet (binder method), measured at 565 nm absorption maximum
# [14] = photochromic laminate by coating method, at 451 nm absorption maximum
# [15] = photochromic laminate by coating method, at 566 nm absorption maximum
# [16] = photochromic laminate by coating method, absorption band at 449 nm
# [17] = photochromic laminate by coating method, absorption band at 569 nm
# [18] = photochromic laminate prepared by coating method, absorption band at 449 nm
# [19] = photochromic laminate prepared by coating method, absorption band at 569 nm
SMILES,"Residual rate (%) [1, 7] [%]","Maximum absorption wavelength (nm) [2, 8] [nm]","A35/A23 *100 (%) [3, 7] [%]","A35 (-) [4, 7]",23°C color fading half-life [5] [min],"A23 (-) [6, 9]","Residual rate [1, 10] [%]","Maximum absorption wavelength [2, 10] [nm]","A35/A23 *100 [3, 10] [%]",Residual rate (%) ([1]; binder sheet (binder method)),"Maximum absorption wavelength (nm) [2, 11] [nm]",A35/A23 *100 (%) ([3]; binder sheet (binder method)),"Temperature change rate (%) [3, 7] [%]",A35 (-) ([4]; binder sheet (binder method)),A23 (-) ([6]; binder sheet (binder method)),other results
CCCC1(CCC)c2cc(C)ccc2-c2c1c1c(c3cc(OC)c(N(C)c4ccccc4)cc23)OC(c2ccc(OC)cc2)(c2ccc(OC)cc2)C=C1 [Example 18 Formula (81)],78,493,70,0.88 -,1.63,1.25 -,–,–,–,–,–,–,–,–,–,–
CCCCC1(CCCC)c2cc(C(F)(F)F)ccc2-c2c1c1c(c3cc(C)c(N4CCc5ccccc54)cc23)OC(c2ccc(OC)cc2)(c2ccc(OC)c(C)c2)C=C1 (stereo not drawn) [Formula (64A)],–,–,–,–,1.1,–,64,523,65,–,–,–,–,–,–,–
CCCOc1ccc(C2(c3ccc(OC)cc3)C=Cc3c4c(c5cc(N6CCc7ccccc76)c(C)cc5c3O2)-c2ccccc2C4(CCC)CCC)cc1 (stereo not drawn) [Formula (31A)],–,–,–,–,1.05,–,67,520,65,–,–,–,–,–,–,–
CCCc1ccc(C2(c3ccc(OC)cc3)C=Cc3c4c(c5cc(N6CCc7ccccc76)c(OC)cc5c3O2)-c2ccc(-c3ccc(C(F)(F)F)cc3)cc2C4(CCOC)CCOC)cc1 (stereo not drawn) [Formula (85A)],–,–,–,–,0.933,–,65,530,69,–,–,–,–,–,–,–
"COc1ccc(C2(c3ccc(OC)cc3)C=Cc3c4c(c5cc(N6CCCCC6)c(OC)cc5c3O2)-c2ccccc2C4(C)C)cc1 [Formula (E), reference compound]",51,481,–,–,–,–,51,481,71,68,481,70,71,1.30 -,1.85 -,"Residual rate ([1]; binder sheet (binder method)): 68%; Maximum absorption wavelength ([2]; binder sheet (binder method)): 481 nm; A35/A23 *100 ([3]; binder sheet (binder method)): 70%; 35°C color optical density (-) [4, 7]: 1.28 -; 23°C color optical density (-) [6, 7]: 1.81 -"
CCCCCCCCC1(CCCCCCCC)c2cc([Si](c3ccccc3)(c3ccccc3)c3ccccc3)ccc2-c2c1c1c(c3cc(OC)c(N(c4ccccc4)c4ccccc4)cc23)OC(c2ccc(OCCC)cc2)(c2ccc(OCCC)cc2)C=C1 [Example 56 Formula (128)],81,508,69,1.24 -,–,1.80 -,–,–,–,–,–,–,–,–,–,–
CCC1(CC)CCC2(CC1)c1ccccc1-c1c2c2c(c3cc(OC)c(N(C)c4ccc(C(F)(F)F)cc4)cc13)OC(c1ccc(C)cc1)(c1ccc(OC)cc1)C=C2 (stereo not drawn) [Example 9 Formula (57)],–,–,64,–,–,–,–,–,–,–,–,–,–,–,–,"Residual rate (%) [1, 12]: 95%; Residual rate (%) [1, 13]: 96%; Residual rate (%) [1, 14]: 83%; Residual rate (%) [1, 15]: 84%; Maximum absorption wavelength (nm) ([2]; binder sheet (binder method), urethaneurea resin photochromic layer between polycarbonate sheets, 0.25 mmol per 100 parts by mass resin, measured at 451 nm absorption maximum): 451 nm; Maximum absorption wavelength (nm) ([2]; binder sheet (binder method), urethaneurea resin photochromic layer between polycarbonate sheets, 0.25 mmol per 100 parts by mass resin, measured at 565 nm absorption maximum): 565 nm; Maximum absorption wavelength (nm) ([2]; photochromic laminate by coating method, 40 µm photochromic layer on thiourethane lens, 0.25 mmol compound per 100 g monomers, at 451 nm absorption maximum): 451 nm; Maximum absorption wavelength (nm) ([2]; photochromic laminate by coating method, 40 µm photochromic layer on thiourethane lens, 0.25 mmol compound per 100 g monomers, at 566 nm absorption maximum): 566 nm; A35/A23 *100 (%) [3, 12]: 66%; A35/A23 *100 (%) [3, 13]: 65%; A35 (-) [4, 12]: 0.49 -; A35 (-) [4, 13]: 0.56 -; A35 (-) [4, 14]: 0.47 -; A35 (-) [4, 15]: 0.55 -; A23 (-) [6, 12]: 0.75 -; A23 (-) [6, 13]: 0.88 -; A23 (-) ([6]; photochromic laminate by coating method, at the maximum absorption wavelength, at 451 nm absorption maximum): 0.73 -; A23 (-) ([6]; photochromic laminate by coating method, at the maximum absorption wavelength, at 566 nm absorption maximum): 0.86 -"
"COc1ccc(C2(c3ccc(OC)cc3)C=Cc3c4c(c5ccc(OC)cc5c3O2)-c2ccccc2C4(C)C)cc1 [Formula (D), reference compound]",–,–,–,–,–,–,–,–,–,–,–,–,63,–,–,"Residual rate (%) [1, 16]: 74%; Residual rate (%) [1, 17]: 73%; Residual rate [1, 18]: 74%; Residual rate [1, 19]: 73%; Maximum absorption wavelength (nm) ([2]; photochromic laminate by coating method, 40 µm photochromic layer on thiourethane lens, 0.25 mmol compound per 100 g monomers, absorption band at 449 nm): 449 nm; Maximum absorption wavelength (nm) ([2]; photochromic laminate by coating method, 40 µm photochromic layer on thiourethane lens, 0.25 mmol compound per 100 g monomers, absorption band at 569 nm): 569 nm; Maximum absorption wavelength [2, 18]: 449 nm; Maximum absorption wavelength [2, 19]: 569 nm; A35/A23 *100 [3, 18]: 64%; A35/A23 *100 [3, 19]: 63%; 35°C color optical density (-) [4, 16]: 0.44 -; 35°C color optical density (-) [4, 17]: 0.55 -; 23°C color optical density (-) [6, 16]: 0.69 -; 23°C color optical density (-) [6, 17]: 0.87 -"
CCCCC1(CCCC)c2ccccc2-c2c1c1c(c3cc(OC)c(N(c4ccc(F)cc4)c4ccc(F)cc4)cc23)OC(c2ccc(OC)cc2)(c2ccc(OC)cc2)C=C1 [Example 12 Formula (66)],81,501,67,0.92 -,–,1.38 -,–,–,–,94,501,67,–,0.93 -,1.40 -,–
"COc1ccc(C2(c3ccc(OC)cc3)C=Cc3c4c(c5cc(N6CCc7ccccc7C6)c(OC)cc5c3O2)-c2ccccc2C4(C)C)cc1 [Formula (F), reference compound]",50,481,–,–,–,–,–,–,–,64,481,70,71,1.30 -,1.85 -,"35°C color optical density (-) [4, 7]: 1.28 -; 23°C color optical density (-) [6, 7]: 1.81 -"
